Literature values in patent publication US20150101082A1, “PROCESSING SEEDS BY COLD PLASMA TREATMENT TO REDUCE AN APPARENT CONTACT ANGLE OF SEEDS COAT SURFACE” (priority 2012, published 2015).

Columns and labels:
mice [1] = conditions: inhalation, 7 hours
mice [2] = conditions: oral
rats = conditions: oral

## Nc1ccccc1 [Aniline]
Mice [1]
  LC50: 175 ppm

## NN [Hydrazine]
Mice [2]
  LD50: ~60 mg/kg
rats
  LD50: ~60 mg/kg
